Measured values taken from publication PMC8150835, “An Smp43-Derived Short-Chain α-Helical Peptide Displays a Unique Sequence and Possesses Antimicrobial Activity against Both Gram-Positive and Gram-Negative Bacteria” (Toxins, 2021).
≈ marks a conversion by molar mass, not a printed value. Where a SMILES comes first, the peptide text is derived from it.

Tests used:
Assay type in all cases: cell-based
[1] = test system: mouse fibroblast cell line L929; assay: Cytotoxicity determination (CCK-8); details: L929 cells, peptide 0-100 μg/mL, 24 h, CCK-8, OD 450 nm; three independent experiments
Experimental: To determine the cytotoxicity of the peptide, the mouse fibroblast cell L929 (8000 cells per well) were seeded in a 96-well plate and incubated for 24 h in Dulbecco’s modified Eagle’s medium (DMEM, Gibco, USA) supplemented with 10% fetal bovine serum (FBS, Gibco, USA), 2 mM/L L-glutamine, 100 U/mL penicillin and […] streptomycin (1% P/S, Invitrogen, USA) at 37 °C in a 5% CO2 atmosphere. Then, a series of concentrations of the peptide (0, 5, 10, 20, 40, 60, 80 and 100 μg/mL) were added into each well and incubation was performed for 24 h. After that, the cytotoxicity of the peptide was measured with the CCK8 cell counting kit (Yeasen, Shanghai, China) by measuring the optical density at 450 nm.

[2] = test system: Enterococcus faecalis ATCC29212; assay: MIC determination (broth microdilution); details: MHB, 5 × 10^5 CFU/mL, peptide 0.625 to 40 μg/mL, 37 °C, 18 h, OD 630 nm
Experimental: (§1) The antimicrobial activities of the peptides were tested against S. aureus ATCC29213, E. faecalis ATCC29212, E. coli ATCC25922, K. pneumoniae ATCC700603, P. aeruginosa ATCC27853 and A. baumannii ATCC19606. All these strains were purchased from the China Center of Type Culture Collection (CCTCC).
(§2) The antimicrobial activities of the peptides were determined as previously described. Briefly, the bacteria were incubated at 37 °C and 150 rpm until the log phase of growth. Next, the bacteria were diluted with Mueller-Hinton broth (MHB, Oxoid, UK) and prepared in a clear round-bottom polypropylene 96-well microtiter plate to achieve a final concentration of 5 × 10^5 colony-forming unit (CFU)/mL. Twofold serial dilutions of the peptides were added into each well with the concentrations ranging from 0.625 to 40 μg/mL. The mixed peptides and cells were cultured at 37 °C and 150 rpm for 18 h, and the optical density (OD) was measured at 630 nm. The minimum inhibitory concentration was defined as the lowest peptide concentration with no detectable bacterial growth.

[3] = test system: Klebsiella pneumoniae ATCC700603; assay: MIC determination (broth microdilution); details: MHB, 5 × 10^5 CFU/mL, peptide 0.625 to 40 μg/mL, 37 °C, 18 h, OD 630 nm
Experimental: as §1, §2

[4] = test system: Pseudomonas aeruginosa ATCC27853; assay: MIC determination (broth microdilution); details: MHB, 5 × 10^5 CFU/mL, peptide 0.625 to 40 μg/mL, 37 °C, 18 h, OD 630 nm
Experimental: as §1, §2

[5] = test system: Escherichia coli ATCC25922; assay: MIC determination (broth microdilution); details: MHB, 5 × 10^5 CFU/mL, peptide 0.625 to 40 μg/mL, 37 °C, 18 h, OD 630 nm
Experimental: as §1, §2

[6] = test system: Staphylococcus aureus ATCC29213; assay: MIC determination (broth microdilution); details: MHB, 5 × 10^5 CFU/mL, peptide 0.625 to 40 μg/mL, 37 °C, 18 h, OD 630 nm
Experimental: as §1, §2

[7] = test system: Acinetobacter baumannii ATCC19606; assay: MIC determination (broth microdilution); details: MHB, 5 × 10^5 CFU/mL, peptide 0.625 to 40 μg/mL, 37 °C, 18 h, OD 630 nm
Experimental: as §1, §2

[8] = test system: human red blood cells; assay: Hemolytic activity determination; details: 2% (v/v) hRBCs, peptide 12.5-200 μg/mL, 37 °C, 1 h, absorbance 540 nm; 1% Triton X-100 = 100%; three independent experiments
Experimental: The hemolytic activities of the peptides were determined against human red blood cells (hRBCs). Briefly, fresh hRBCs anticoagulated with sodium citrate were rinsed with 0.9% sodium chloride by centrifugation (1000× g, 5 min). Then, the cells were diluted to a final concentration of 2% (v/v) and prepared in a clear 96-well polypropylene microtiter plate. Next, the samples were mixed with a series of concentrations of the peptide (12.5, 25, 50, 100 and 200 μg/mL) and incubated at 37 °C for 1 h. After that, the samples were centrifuged (2000× g, 10 min), and the absorbances of the supernatants were measured at 540 nm to evaluate the release of hemoglobin. HRBCs treated with 1% Triton X-100 or 0.9% sodium chloride were taken as 100% and 0% hemolysis, respectively.

[9] = test system: Gram-positive and Gram-negative bacteria (all bacterial strains tested); assay: MIC determination, summary over all tested bacterial strains; details: summary over the six strains tested; MHB, 37 °C, 18 h, peptide 0.625 to 40 μg/mL
Experimental: as §1, §2

CC[C@H](C)[C@H](NC(=O)[C@H](CCCCN)NC(=O)CNC(=O)[C@H](C)NC(=O)[C@@H](NC(=O)[C@H](CCCCN)NC(=O)[C@H](CCCCN)NC(=O)[C@@H](NC(=O)[C@H](Cc1c[nH]c2ccccc12)NC(=O)[C@H](CC(=O)O)NC(=O)[C@H](Cc1c[nH]c2ccccc12)NC(=O)[C@@H](NC(=O)CN)C(C)C)[C@@H](C)CC)[C@@H](C)O)C(=O)N[C@@H](Cc1c[nH]c2ccccc12)C(N)=O [Smp43(1-14)] (H-GVWDWIKKTAGKIW-NH2)
IC10: the concentration of the peptide that causes 10% inhibition of cell growth [1]: 92 µg/mL
MIC [2]: 10 µg/mL (≈ 5.93 µM)
MIC [3]: 10 µg/mL (≈ 5.93 µM)
MIC [4]: 10 µg/mL (≈ 5.93 µM)
MIC [5]: 10 µg/mL (≈ 5.93 µM)
MIC [6]: 5 µg/mL (≈ 2.96 µM)
MIC [7]: 5 µg/mL (≈ 2.96 µM)
HC10: the concentration of the peptide that causes 10% hemolysis of human red blood cells [8]: 75 µg/mL
MICs against the tested Gram-positive and Gram-negative bacterial species [9]: 5 to 10 µg/mL
